Conditions: screened with a sieve (1.00 mm, No. 18), poured into glass graduated measuring cylinder, apparent volume
Experimental: The tops were scraped flat. The apparent volumes were recorded. The bulk densities were calculated.

Question: For `NC(=O)c1ccc[n+]([C@@H]2O[C@H](COP(=O)([O-])O)[C@@H](O)[C@H]2O)c1` [Form 1, nicotinamide mononucleotide anhydrous crystal (form 1)], which Bulk density is on record?
Answer: 0.15 g/mL

— patent US20220402961A1 (BONTAC BIO-ENGINEERING(SHENZHEN) CO.,LTD, priority 2021, published 2022)
